Where two headings read alike, the source gives them in different places.
Key:
CYP2C9 = CYP2C9 (Homo sapiens, UniProt P11712); settings: read-out: IC50, Tolbutamide methylhydroxylation; human liver microsomes, probe 4 μM
Procedure: (§1) Human liver microsomes were prepared and pooled from ten human livers (HL20–24,28–32) as previously described. Human liver samples were obtained from the University Hospital of Oulu as surplus tissue from cadaver kidney transplant donors. The collection of surplus tissue was approved by the Ethics Committee of the Medical Faculty of the University of Oulu, Finland. All donors were Caucasians ranging in age from 21 to 62 years; four were female and six were male. Detailed information on each donor has been published previously. Protein concentrations were measured using the Bradford method.
(§2) In vitro inhibition of CYP isoforms was first assessed using the N-in-one approach (also called the cocktail approach). CYP-selective substrates and reactions are listed in Table 1; concentrations were roughly at or below the respective Michaelis-Menten coefficients. […] A Micromass LCT time-of-flight high-resolution mass spectrometer (Micromass Ltd., Manchester, UK) equipped with a Z-spray electrospray ionization source was used for the monitoring of CYP-selective reactions. Integrated mass chromatogram peak areas were normalized versus internal standards before comparing metabolites in different preparations. More details of the assay are available in previous publications.
(§3) Dixon, Lineweaver-Burk, Hanes, and Hofstee plots were used for the analysis of the type of inhibition.

[1] = repeated oral 60-mg dosing of ospemifene, no reference given; read-out: clinical Cmax; cited from earlier work
[2] = system: CYP-mediated enzyme activities; assay: N-in-one CYP inhibition assay, summary for all other CYP-mediated activities; format: in vitro ADME; settings: human liver microsomes; CYPs other than those named in the paragraph
CYP2D6 = CYP2D6 (Homo sapiens, UniProt P10635); assay: N-in-one CYP inhibition assay in human liver microsomes; type of inhibition; settings: read-out: IC50, Dextromethorphan O-demethylation; human liver microsomes, probe 0.2 μM
CYP2D6, sequence (P10635 whole entry): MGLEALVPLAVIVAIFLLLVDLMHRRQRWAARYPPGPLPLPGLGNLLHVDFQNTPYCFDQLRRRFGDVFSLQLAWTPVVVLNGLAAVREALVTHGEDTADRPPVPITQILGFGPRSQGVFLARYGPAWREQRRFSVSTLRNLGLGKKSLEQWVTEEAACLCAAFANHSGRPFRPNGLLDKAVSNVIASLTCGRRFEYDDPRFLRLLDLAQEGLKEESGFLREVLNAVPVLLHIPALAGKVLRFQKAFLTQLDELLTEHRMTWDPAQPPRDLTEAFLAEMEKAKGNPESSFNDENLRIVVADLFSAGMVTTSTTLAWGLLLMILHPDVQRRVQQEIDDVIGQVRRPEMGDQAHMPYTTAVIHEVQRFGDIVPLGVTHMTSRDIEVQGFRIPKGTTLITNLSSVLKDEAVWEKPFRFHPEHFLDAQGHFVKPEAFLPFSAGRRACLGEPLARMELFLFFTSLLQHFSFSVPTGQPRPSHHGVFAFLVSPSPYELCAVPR
Procedure: as §1, §2, §3

CYP2C8 = target: T1, CYP2C8 (Homo sapiens, UniProt P10632); assay: as above; settings: read-out: IC50, Amodiaquine desethylation; human liver microsomes, probe 2 μM
T1 sequence (P10632 1-490): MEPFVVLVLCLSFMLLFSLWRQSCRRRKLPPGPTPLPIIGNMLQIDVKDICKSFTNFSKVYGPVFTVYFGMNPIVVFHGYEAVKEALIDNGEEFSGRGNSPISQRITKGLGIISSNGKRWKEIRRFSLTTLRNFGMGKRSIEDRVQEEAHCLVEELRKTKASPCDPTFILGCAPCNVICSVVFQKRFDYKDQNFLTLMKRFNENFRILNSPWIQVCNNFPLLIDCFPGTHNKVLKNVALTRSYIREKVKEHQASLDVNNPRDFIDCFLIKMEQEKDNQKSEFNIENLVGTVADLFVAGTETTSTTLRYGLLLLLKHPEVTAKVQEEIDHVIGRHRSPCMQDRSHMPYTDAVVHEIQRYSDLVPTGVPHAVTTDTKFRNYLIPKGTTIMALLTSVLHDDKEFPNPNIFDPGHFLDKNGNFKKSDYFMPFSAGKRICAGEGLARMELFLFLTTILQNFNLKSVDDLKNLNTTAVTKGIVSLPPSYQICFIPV
Procedure: as §1, §2, §3

[3] = metabolites of ospemifene; cited from earlier work
CYP1A2 = target: T2, CYP1A2 (Homo sapiens, UniProt P05177); assay: biochemical; settings: read-out: IC50, Melatonin 6-hydroxylation; human liver microsomes, probe 4 μM
T2 sequence (P05177 1-516): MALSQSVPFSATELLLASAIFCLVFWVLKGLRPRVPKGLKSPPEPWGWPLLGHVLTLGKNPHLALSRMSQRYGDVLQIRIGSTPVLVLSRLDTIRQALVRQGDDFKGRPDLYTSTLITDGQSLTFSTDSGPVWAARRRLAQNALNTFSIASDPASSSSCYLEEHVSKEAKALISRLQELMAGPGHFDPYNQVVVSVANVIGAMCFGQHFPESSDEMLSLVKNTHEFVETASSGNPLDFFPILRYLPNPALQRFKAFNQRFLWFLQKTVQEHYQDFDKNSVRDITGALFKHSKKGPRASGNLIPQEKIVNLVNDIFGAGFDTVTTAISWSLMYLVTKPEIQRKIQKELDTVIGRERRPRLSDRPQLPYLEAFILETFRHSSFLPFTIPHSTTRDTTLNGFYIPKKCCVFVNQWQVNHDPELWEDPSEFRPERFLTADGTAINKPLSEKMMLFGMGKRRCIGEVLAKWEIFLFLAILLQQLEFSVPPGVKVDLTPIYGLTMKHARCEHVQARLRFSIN
Procedure: as §1, §2

CYP3A4 = CYP3A4 (Homo sapiens, UniProt P08684); assay: biochemical; settings: human liver microsomes
CYP3A4, sequence (P08684 whole entry): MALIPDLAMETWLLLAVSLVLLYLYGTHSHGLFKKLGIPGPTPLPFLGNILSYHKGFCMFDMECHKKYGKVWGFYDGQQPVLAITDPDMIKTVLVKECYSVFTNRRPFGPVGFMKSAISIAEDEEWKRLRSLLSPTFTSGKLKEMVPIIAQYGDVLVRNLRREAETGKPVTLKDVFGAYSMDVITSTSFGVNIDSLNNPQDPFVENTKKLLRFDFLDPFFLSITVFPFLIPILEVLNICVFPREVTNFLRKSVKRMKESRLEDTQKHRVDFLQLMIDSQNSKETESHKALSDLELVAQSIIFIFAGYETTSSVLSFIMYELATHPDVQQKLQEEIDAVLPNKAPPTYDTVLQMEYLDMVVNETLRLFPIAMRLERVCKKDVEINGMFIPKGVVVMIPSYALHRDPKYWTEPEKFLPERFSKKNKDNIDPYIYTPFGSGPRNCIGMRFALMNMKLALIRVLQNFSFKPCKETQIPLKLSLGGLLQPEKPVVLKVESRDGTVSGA
Procedure: as §1, §2

CYP2A6 = target: T3, CYP2A6 (Homo sapiens, UniProt P11509); assay: N-in-one CYP inhibition assay in human liver microsomes; settings: read-out: IC50, Coumarin 7-hydroxylation; human liver microsomes, probe 2 μM
T3 sequence (P11509 1-494): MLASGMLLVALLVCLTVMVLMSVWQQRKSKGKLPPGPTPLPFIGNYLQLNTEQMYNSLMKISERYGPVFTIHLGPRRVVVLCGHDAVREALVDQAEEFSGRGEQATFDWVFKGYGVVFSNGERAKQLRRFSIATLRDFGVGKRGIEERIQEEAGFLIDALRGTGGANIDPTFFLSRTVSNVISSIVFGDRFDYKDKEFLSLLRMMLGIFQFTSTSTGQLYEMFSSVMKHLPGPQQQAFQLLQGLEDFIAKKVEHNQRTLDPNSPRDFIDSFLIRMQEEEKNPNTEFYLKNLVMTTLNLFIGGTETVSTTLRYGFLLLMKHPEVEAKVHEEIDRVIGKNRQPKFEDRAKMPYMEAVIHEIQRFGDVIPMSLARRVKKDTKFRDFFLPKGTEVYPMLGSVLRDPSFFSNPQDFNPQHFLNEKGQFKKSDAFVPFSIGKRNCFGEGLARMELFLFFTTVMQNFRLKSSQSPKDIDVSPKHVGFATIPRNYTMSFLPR
Procedure: as §1, §2

CYP2E1 = CYP2E1 (Homo sapiens, UniProt P05181); assay: as above; settings: read-out: IC50, Chlorzoxazone 6-hydroxylation; human liver microsomes, probe 6 μM
CYP2E1, sequence (P05181 whole entry): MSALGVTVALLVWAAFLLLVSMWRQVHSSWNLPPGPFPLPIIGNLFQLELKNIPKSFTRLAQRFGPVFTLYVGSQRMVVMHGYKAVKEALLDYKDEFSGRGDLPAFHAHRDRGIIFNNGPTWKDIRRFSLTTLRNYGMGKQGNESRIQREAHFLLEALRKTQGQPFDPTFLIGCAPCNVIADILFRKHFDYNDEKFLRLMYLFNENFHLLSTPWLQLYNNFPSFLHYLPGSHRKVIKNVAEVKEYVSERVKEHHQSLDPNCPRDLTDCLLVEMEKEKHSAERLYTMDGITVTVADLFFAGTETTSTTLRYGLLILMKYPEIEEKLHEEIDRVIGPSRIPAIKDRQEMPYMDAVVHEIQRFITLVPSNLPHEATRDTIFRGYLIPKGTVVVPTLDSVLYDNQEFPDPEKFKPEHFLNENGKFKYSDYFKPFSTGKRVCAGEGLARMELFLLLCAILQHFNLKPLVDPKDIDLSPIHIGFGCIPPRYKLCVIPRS
Procedure: as §1, §2

CYP2B6 = target: T4, CYP2B6 (Homo sapiens, UniProt P20813); assay: biochemical; settings: read-out: IC50, Bupropion hydroxylation; human liver microsomes, probe 1 μM
T4 sequence (P20813 1-491): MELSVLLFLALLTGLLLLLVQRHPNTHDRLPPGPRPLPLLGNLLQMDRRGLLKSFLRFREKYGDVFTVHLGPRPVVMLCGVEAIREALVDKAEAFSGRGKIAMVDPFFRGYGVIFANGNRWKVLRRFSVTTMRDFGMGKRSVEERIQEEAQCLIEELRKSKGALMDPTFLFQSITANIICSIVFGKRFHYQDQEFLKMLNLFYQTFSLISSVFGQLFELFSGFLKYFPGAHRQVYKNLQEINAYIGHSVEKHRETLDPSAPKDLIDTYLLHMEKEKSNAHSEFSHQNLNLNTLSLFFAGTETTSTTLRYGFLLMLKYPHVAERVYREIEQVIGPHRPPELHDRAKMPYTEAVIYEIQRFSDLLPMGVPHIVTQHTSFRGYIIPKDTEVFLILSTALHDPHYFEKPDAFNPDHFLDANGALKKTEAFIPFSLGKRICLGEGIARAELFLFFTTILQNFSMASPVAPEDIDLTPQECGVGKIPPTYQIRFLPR
Procedure: as §1, §2, §3

CYP2C19 = CYP2C19 (Homo sapiens, UniProt P33261); assay: biochemical; settings: human liver microsomes, probe 2 μM
CYP2C19, sequence (P33261 whole entry): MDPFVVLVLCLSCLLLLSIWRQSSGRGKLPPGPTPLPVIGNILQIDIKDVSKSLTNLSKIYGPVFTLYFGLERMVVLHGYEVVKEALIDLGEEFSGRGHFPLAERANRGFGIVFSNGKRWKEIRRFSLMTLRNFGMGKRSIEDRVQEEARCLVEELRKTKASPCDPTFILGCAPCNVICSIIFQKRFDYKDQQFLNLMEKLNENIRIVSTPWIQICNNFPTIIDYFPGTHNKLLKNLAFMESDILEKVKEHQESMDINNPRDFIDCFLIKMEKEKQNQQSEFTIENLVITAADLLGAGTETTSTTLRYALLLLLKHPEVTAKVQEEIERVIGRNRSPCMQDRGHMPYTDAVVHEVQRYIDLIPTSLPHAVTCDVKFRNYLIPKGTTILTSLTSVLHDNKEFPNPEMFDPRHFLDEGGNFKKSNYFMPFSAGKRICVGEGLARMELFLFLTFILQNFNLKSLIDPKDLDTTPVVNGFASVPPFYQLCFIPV
Procedure: as §1, §2, §3

[4] = female, human, in vivo, 150 mg
Description: (§4) Studies 1 and 2 were open-label, two-period, single-center, Phase 1, balanced, crossover studies in healthy postmenopausal women. […] Study 3 was a Phase 1, open-label, single-center, balanced, two-period, crossover study in healthy postmenopausal women who were not homozygous for the CYP2C19*2 genotype (CYP2C19*2 indicates the CYP2C19 variant that is associated with reduced activity). In each study, equal numbers of subjects were assigned to the two different treatment sequences.
(§5) The study periods were separated by ≥14 days.
(§6) With the exception of tmax, which was analyzed using the nonparametric Wilcoxon’s test, pharmacokinetic parameters were analyzed after log-transformation using analysis of variance (ANOVA), with sequence, period, and treatment as fixed effects.

[5] = Study 2: effect of ospemifene on bupropion pharmacokinetics; settings: for CL/F, mean (CV%) / t1/2, mean (CV%) / AUCt, mean (CV%) / Cmax, mean (CV%) / tmax, median (range) / AUC∞, mean (CV%): 150 mg bupropion; for AUCt, mean (CV%): 0-96 h; for AUC∞, mean (CV%): N = 16
Description: as §4, §5, §6

[6] = Overall safety in the three clinical studies; format: in vivo, human; settings: healthy postmenopausal women, with and without ospemifene
Description: All experiments with human subjects were based on voluntary informed consent and the clinical study protocols had appropriate ethical and regulatory approval. Subjects were asked to immediately report any significant adverse events (AEs) that occurred during the study; minor AEs were reported at clinic visits. AEs were coded and classified according to the Medical Dictionary for Regulatory Activities.

clinical = settings: female, human, in vivo
Description: as §4, §5, §6

[7] = Study 3: effect of ospemifene on omeprazole pharmacokinetics (metabolic ratios)
Description: as §4
The study periods were separated by ≥14 days. In both study periods, blood samples for determination of plasma omeprazole, 5-hydroxyomeprazole, and omeprazole sulfone concentrations were collected before and at 1, 2, 3, 4, 6, and 8 h after omeprazole administration.
In Study 3, concentrations of omeprazole, 5-hydroxyomeprazole, and omeprazole sulfone were determined using a validated LC-MS/MS method. Pharmacokinetic parameters were analyzed after log-transformation using ANOVA, with sequence, period, and treatment as fixed effects. Primary pharmacokinetic parameters included the metabolic ratios of omeprazole/5-hydroxyomeprazole and omeprazole/omeprazole sulfone, based on plasma concentrations at 3 h, which reflected CYP2C19 and CYP3A4 activities, respectively.

[8] = 10 mg racemic warfarin; for AUC∞, mean (CV%): N = 16
Description: as §4
The study periods were separated by ≥3 weeks.
as §6

[9] = cited from earlier work

CYP2C9, sequence (P11712 whole entry): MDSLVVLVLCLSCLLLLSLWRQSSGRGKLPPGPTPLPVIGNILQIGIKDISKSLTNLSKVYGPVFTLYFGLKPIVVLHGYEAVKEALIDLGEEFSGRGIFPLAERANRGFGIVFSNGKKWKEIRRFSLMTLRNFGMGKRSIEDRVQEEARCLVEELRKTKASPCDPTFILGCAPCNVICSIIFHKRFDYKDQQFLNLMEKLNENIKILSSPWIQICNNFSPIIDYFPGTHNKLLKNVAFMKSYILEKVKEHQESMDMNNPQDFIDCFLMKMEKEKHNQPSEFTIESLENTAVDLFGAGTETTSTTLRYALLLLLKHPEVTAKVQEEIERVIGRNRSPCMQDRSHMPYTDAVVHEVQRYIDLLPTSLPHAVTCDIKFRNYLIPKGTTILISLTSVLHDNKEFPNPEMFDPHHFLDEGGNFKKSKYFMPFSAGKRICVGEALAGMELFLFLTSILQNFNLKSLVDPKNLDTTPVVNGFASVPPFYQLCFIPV

SMILES: OCCOc1ccc(/C(=C(/CCCl)c2ccccc2)c2ccc(O)cc2)cc1 [4-Hydroxy-ospemifene, 4-hydroxyospemifene]
- IC50 (CYP2C9): 1.1 µM
- Cmax [1]: ~300 nM
- IC50 [2]: > 25 µM
- IC50 (CYP2D6): 25.5 µM
- IC50 (CYP2C8): 27.7 µM
- share of the total metabolites [3]: roughly 70%
- IC50 (CYP1A2): > 100 µM
- IC50 (CYP3A4; read-out: IC50, Midazolam 1′-hydroxylation, probe 0.4 μM): > 100 µM
- IC50 (CYP3A4; read-out: IC50, Omeprazole 3-hydroxylation, probe 2 μM): 50 µM
- IC50 (CYP3A4; read-out: IC50, Omeprazole sulfoxidation, probe 2 μM): 35.9 µM
- IC50 (CYP3A4; read-out: IC50, Testosterone 6β-hydroxylation, probe 1 μM): > 100 µM
- IC50 (CYP2A6): > 100 µM
- IC50 (CYP2E1): > 100 µM
- IC50 (CYP2B6): 26.5 µM
- IC50 (CYP2C19; read-out: IC50, Omeprazole 5-hydroxylation): 15.3 µM
- IC50 (CYP2C19; read-out: IC50, Omeprazole demethylation): 19.7 µM

SMILES: CC(NC(C)(C)C)C(=O)c1cccc(Cl)c1 (centres unmarked) [Bupropion, bupropion]
- AUCt, mean (CV%) [4]: 0.85 (33.7) μg h/mL
- AUC∞, mean (CV%) [4]: 0.90 (32.3) μg h/mL
- CL/F, mean (CV%) ([5]; OSP (+)): 230 (38.1) mL/h
- t1/2, mean (CV%) ([5]; OSP (+)): 29.5 (26.7) h
- CL/F, mean (CV%) ([5]; OSP (−)): 185 (38.1) mL/h
- Tolerability [6]: well tolerated
- Tmax (clinical): 3 h
- Cmax (clinical; 150 mg): 74.9 ng/mL
- Tmax (clinical; 150 mg): 3.5 h
- half-life (clinical; 150 mg): 30.8 h

SMILES: C[C@H]1NC(C)(C)CO[C@]1(O)c1cccc(Cl)c1 [Hydroxybupropion, hydroxybupropion]
- AUCt, mean (CV%) ([5]; OSP (+)): 14.5 (31.7) μg h/mL
- AUCt, mean (CV%) ([5]; OSP (−)): 14.3 (28.1) μg h/mL
- Cmax, mean (CV%) ([5]; OSP (+)): 462 (29.0) ng/mL
- t1/2, mean (CV%) ([5]; OSP (+)): 21.2 (18.0) h
- tmax, median (range) ([5]; OSP (+)): 6.1 (5–8) h
- AUC∞, mean (CV%) ([5]; OSP (+) 60 mg once daily): 15.2 (32.4) μg h/mL
- Cmax, mean (CV%) ([5]; OSP (−)): 398 (30.6) ng/mL
- t1/2, mean (CV%) ([5]; OSP (−)): 26.7 (18.8) h
- tmax, median (range) ([5]; OSP (−)): 6.0 (5–24) h
- AUC∞, mean (CV%) ([5]; OSP (−)): 15.5 (29.4) μg h/mL
- Ratio of geometric least square means of AUC∞ (90% CI) ([5]; with and without ospemifene pretreatment): 0.977 (0.921–1.036)

SMILES: COc1ccc2[nH]c([S+]([O-])Cc3ncc(C)c(OC)c3C)nc2c1 (centres unmarked) [Omeprazole, omeprazole]
- Tolerability [6]: well tolerated
- Ratio ospemifene (+)/ospemifene (−) of metabolic ratio Omeprazole/5-hydroxyomeprazole (90% CI) ([7]; 3 h conc.): 0.97 (0.77–1.22)
- Ratio ospemifene (+)/ospemifene (−) of metabolic ratio Omeprazole/Omeprazole sulfone (90% CI) ([7]; 3 h conc.): 0.97 (0.67–1.41)
- Ratio ospemifene (+)/ospemifene (−) of metabolic ratio Omeprazole/5-hydroxyomeprazole (90% CI) ([7]; AUCt 0 to 8 h): 0.97 (0.88–1.08)
- Ratio ospemifene (+)/ospemifene (−) of metabolic ratio Omeprazole/Omeprazole sulfone (90% CI) ([7]; AUCt 0 to 8 h): 1.00 (0.88–1.15)

SMILES: CC(=O)C[C@H](c1ccccc1)c1c(O)c2ccccc2oc1=O [R-Warfarin]
- Cmax, mean (CV%) ([8]; OSP (+)): 538 (15.4) ng/mL
- tmax, median (range) ([8]; OSP (+)): 4 (2–8) h
- AUC∞, mean (CV%) ([8]; OSP (+) 60 mg once daily): 32.8 (23.1) μg h/mL
- Cmax, mean (CV%) ([8]; OSP (−)): 518 (15.2) ng/mL
- tmax, median (range) ([8]; OSP (−)): 4 (2–6) h
- AUC∞, mean (CV%) ([8]; OSP (−)): 31.3 (21.7) μg h/mL

SMILES: O=C(c1ccc(OCCN2CCCCC2)cc1)c1c(-c2ccc(O)cc2)sc2cc(O)ccc12 [Raloxifene]
- Decrease of the prothrombin time of patients on warfarin [9]: 10%

SMILES: CC(=O)C[C@@H](c1ccccc1)c1c(O)c2ccccc2oc1=O [S-Warfarin, S-warfarin]
- Cmax, mean (CV%) ([8]; OSP (+)): 513 (13.3) ng/mL
- tmax, median (range) ([8]; OSP (+)): 4 (2–8) h
- AUC∞, mean (CV%) ([8]; OSP (+) 60 mg once daily): 19.2 (30.2) μg h/mL
- Cmax, mean (CV%) ([8]; OSP (−)): 497 (14.5) ng/mL
- tmax, median (range) ([8]; OSP (−)): 4 (2–6) h
- AUC∞, mean (CV%) ([8]; OSP (−)): 18.5 (29.9) μg h/mL

SMILES: CC(=O)CC(c1ccccc1)c1c(O)c2ccccc2oc1=O (centres unmarked) [warfarin]
- Tolerability [6]: well tolerated
